The assay deals with T1, human SLC6A19 and TMEM27 (Homo sapiens, UniProt Q695T7).
T1 construct: expressed in transfected cells
T1 sequence (Q695T7 1-634): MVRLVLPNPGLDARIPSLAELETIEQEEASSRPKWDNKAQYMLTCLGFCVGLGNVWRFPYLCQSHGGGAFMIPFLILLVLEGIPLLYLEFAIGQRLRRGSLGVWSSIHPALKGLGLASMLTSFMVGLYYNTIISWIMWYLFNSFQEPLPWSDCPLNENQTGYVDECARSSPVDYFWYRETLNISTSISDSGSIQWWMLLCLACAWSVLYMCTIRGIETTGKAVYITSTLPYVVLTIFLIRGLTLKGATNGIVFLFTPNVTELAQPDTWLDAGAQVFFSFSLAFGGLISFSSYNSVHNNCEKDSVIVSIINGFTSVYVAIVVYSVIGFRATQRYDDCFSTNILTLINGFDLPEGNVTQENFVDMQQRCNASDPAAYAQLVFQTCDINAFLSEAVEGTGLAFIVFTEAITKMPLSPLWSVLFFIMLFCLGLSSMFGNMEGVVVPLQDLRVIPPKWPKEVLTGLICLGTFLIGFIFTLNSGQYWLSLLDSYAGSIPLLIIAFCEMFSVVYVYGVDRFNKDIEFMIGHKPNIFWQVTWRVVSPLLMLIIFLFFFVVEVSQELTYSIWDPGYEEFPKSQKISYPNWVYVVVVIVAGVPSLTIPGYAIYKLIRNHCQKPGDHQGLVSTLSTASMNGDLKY
T1 sequence (Q9HBJ8 15-222 partner): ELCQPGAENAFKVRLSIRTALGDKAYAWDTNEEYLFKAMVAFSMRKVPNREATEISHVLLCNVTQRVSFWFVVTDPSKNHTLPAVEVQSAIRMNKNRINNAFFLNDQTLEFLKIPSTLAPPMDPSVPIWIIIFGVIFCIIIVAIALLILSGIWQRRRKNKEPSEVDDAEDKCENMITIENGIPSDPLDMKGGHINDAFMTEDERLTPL
In words: Radiolabelled (3H) leucine uptake in CHO cells with doxycycline-inducible expression of human SLC6A19 and TMEM27 (Example B-1). Type of assay: cell-based. The settings on record: CHO cells with doxycycline-inducible expression of human SLC6A19 and TMEM27, read-out: SLC6A19_Radioligand Uptake Assay IC50. In short, it runs like this: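 CHO cells were induced with doxycycline for 18 h at 37 °C, washed in HBSS, then exposed to compounds for 1 h: 8-point, 3-fold dilutions in duplicate, 0.5% DMSO final. Uptake measured by scintillation counting after 2 h shaking. Activity normalized with positive control as 0% and DMSO as 100%.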
The term IC50 denotes the concentration that inhibits the measured activity by half. Consider `O=C(NCc1cc2c(F)cc(OCc3ccon3)cc2[nH]1)N1CCC1` [Compound 423, N-((4-fluoro-6-(isoxazol-3-ylmethoxy)-1H-indol-2-yl)methyl)azetidine-1-carboxamide], for which the IC50 was 198 nM.
Under `Cc1cc(COc2cc(F)c3cc(CNC(=O)N4CCC4)[nH]c3c2)on1` [Compound 427, N-((4-fluoro-6-((3-methylisoxazol-5-yl)methoxy)-1H-indol-2-yl)methyl)azetidine-1-carboxamide] stands 634 nM; under `O=C(NCc1cc2cc(F)c(OCc3cocn3)cc2[nH]1)C1CC1` [Compound 428, N-((5-fluoro-6-(oxazol-4-ylmethoxy)-1H-indol-2-yl)methyl)cyclopropanecarboxamide], 161 nM; under `O=C(NCc1cc2cc(Cl)c(OCc3cocn3)cc2[nH]1)C1CC1` [Compound 429, N-((5-chloro-6-(oxazol-4-ylmethoxy)-1H-indol-2-yl)methyl)cyclopropanecarboxamide], 215 nM.
On to `CC1(C(=O)NCc2cc3cc(OC(F)(F)F)c(OCc4cscn4)cc3[nH]2)CC1` [Compound 434, 1-methyl-N-((6-(thiazol-4-ylmethoxy)-5-(trifluoromethoxy)-1H-indol-2-yl)methyl)cyclopropane-1-carboxamide], for which the IC50 turned out to be 263 nM.
In the case of `CC(F)(F)C(=O)NCc1cc2cc(Cl)c(OCc3cscn3)cc2[nH]1` [Compound 435, N-((5-chloro-6-(thiazol-4-ylmethoxy)-1H-indol-2-yl)methyl)-2,2-difluoropropanamide], the IC50 was 133 nM.
To `CC(F)(F)C(=O)NCc1cc2cc(F)c(OCc3cscn3)cc2[nH]1` [Compound 436, 2,2-difluoro-N-((5-fluoro-6-(thiazol-4-ylmethoxy)-1H-indol-2-yl)methyl)propanamide] belongs 97 nM.
To `N#CCC(=O)NCc1cc2cc(Cl)c(OCc3cscn3)cc2[nH]1` [Compound 437, N-((5-chloro-6-(thiazol-4-ylmethoxy)-1H-indol-2-yl)methyl)-2-cyanoacetamide] belongs 382 nM; to `CC1(C(=O)NCc2cc3cc(OC(F)(F)F)c(OCc4cocn4)cc3[nH]2)CC1` [Compound 439, 1-methyl-N-((6-(oxazol-4-ylmethoxy)-5-(trifluoromethoxy)-1H-indol-2-yl)methyl)cyclopropane-1-carboxamide], 327 nM.
Under `Cc1cc(COc2cc3[nH]c(CNC(=O)C(C)(F)F)cc3cc2Cl)on1` [Compound 440, N-((5-chloro-6-((3-methylisoxazol-5-yl)methoxy)-1H-indol-2-yl)methyl)-2,2-difluoropropanamide] stands 111 nM.
On to `Cc1cc(COc2cc3[nH]c(CNC(=O)C(C)(F)F)cc3cc2F)on1` [Compound 441, 2,2-difluoro-N-((5-fluoro-6-((3-methylisoxazol-5-yl)methoxy)-1H-indol-2-yl)methyl)propanamide], for which the IC50 turned out to be 95.6 nM.
To `Cc1cc(COc2cc3[nH]c(CNC(=O)[C@@H]4CCN4)cc3cc2Cl)on1` [Compound 448, (S)-N-((5-chloro-6-((3-methylisoxazol-5-yl)methoxy)-1H-indol-2-yl)methyl)azetidine-2-carboxamide] belongs 2750 nM.
Under `Cc1cc(COc2cc3[nH]c(CNC(=O)CC4CC4)cc3cc2Cl)on1` [Compound 449, N-((5-chloro-6-((3-methylisoxazol-5-yl)methoxy)-1H-indol-2-yl)methyl)-2-cyclopropylacetamide] stands 187 nM.
To `Cc1cc(COc2cc3[nH]c(CNC(=O)c4ccon4)cc3cc2Cl)on1` [Compound 450, N-((5-chloro-6-((3-methylisoxazol-5-yl)methoxy)-1H-indol-2-yl)methyl)isoxazole-3-carboxamide] belongs 95.1 nM; to `Cc1cc(CNc2cc3[nH]c(CNC(=O)C4(C)CC4)cc3cc2Cl)no1` [Compound 451, N-((5-chloro-6-(((5-methylisoxazol-3-yl)methyl)amino)-1H-indol-2-yl)methyl)-1-methylcyclopropane-1-carboxamide], 237 nM.

Source of the values: US20240199546A1, “INHIBITORS OF SOLUTE CARRIER FAMILY 6A MEMBER 19 (SLC6A19) AND METHODS OF USE THEREOF” (Maze Therapeutics, Inc., priority 2022, published 2024).
